According to ChEMBL document CHEMBL3885861, “Open TG-GATES”:

Species: Rattus norvegicus
Experiment: Open TG-GATES - Regimen: Daily Repeat
Format: toxicity, organism-based, Sprague-Dawley
Design: regimen Daily Repeat, gender Male, age 6 weeks
Conditions: in vivo, po, route gavage; for Bas / Eos / Fbg / Hb / MCH / MCHC / MCV / Mono / Neu / Plat / RBC / Ret / WBC / APTT / Ht / Lym / PT: tissue Blood; for KIDNEY_L / KIDNEY_R / KIDNEY_TOTAL: tissue Kidney; for LIVER: tissue Liver; for ALP / ALT / AST / BUN / CRE / Ca / DBIL / GLC / IP / K / LDH / Na / PL / RALB / TBIL / TC / TP / gamma-GTP / TG: tissue Plasma
[1] = 0 mg/kg, 72 h, dose level Control, time 3 day
[2] = 0 mg/kg, […], dose level Control, time 7 day
[3] = 0 mg/kg, […], dose level Control, time 14 day
[4] = 0 mg/kg, […], dose level Control, time 28 day
[5] = 100 mg/kg, 72 h, dose level Low, time 3 day
[6] = 100 mg/kg, […], dose level Low, time 7 day
[7] = 100 mg/kg, […], dose level Low, time 14 day
[8] = 100 mg/kg, […], dose level Low, time 28 day

SMILES: O=C(O)c1cn(C2CC2)c2cc(N3CCNCC3)c(F)cc2c1=O [CIPROFLOXACIN]
- TERMINAL_BW [1]: 198.1 g
- Bas [1]: 0%
- Eos [1]: 1.2%
- Fbg [1]: 228 mg/dL
- Hb [1]: 13.2 g/dL
- MCH [1]: 22.2 pg
- MCHC [1]: 33.5%
- MCV [1]: 66.2 fL
- Mono [1]: 7.6%
- Neu [1]: 12%
- Plat [1]: 99.9 x10_4/uL
- RBC [1]: 595 x10_4/ul
- Ret [1]: 8.5%
- WBC [1]: 105.1 x10_2/uL
- KIDNEY_L [1]: 0.9 g
- KIDNEY_R [1]: 0.9 g
- KIDNEY_TOTAL [1]: 1.8 g
- LIVER [1]: 9.9 g
- ALP [1]: 993.2 IU/L
- ALT [1]: 38.8 IU/L
- AST [1]: 66 IU/L
- BUN [1]: 17.2 mg/dL
- CRE [1]: 0.5 mg/dL
- Ca [1]: 11.4 mg/dL
- DBIL [1]: 0.002 mg/dL
- GLC [1]: 182 mg/dL
- IP [1]: 7.9 mg/dL
- K [1]: 5.1 meq/L
- LDH [1]: 88.4 IU/L
- Na [1]: 139.4 meq/L
- PL [1]: 157 mg/dL
- RALB [1]: 4 g/dL
- TBIL [1]: 0.3 mg/dL
- TC [1]: 84 mg/dL
- TP [1]: 5.9 g/dL
- gamma-GTP [1]: 1.8 IU/L
- TERMINAL_BW [2]: 237.8 g
- TERMINAL_BW [3]: 285 g
- TERMINAL_BW [4]: 358.5 g
- APTT [2]: 16.9 s
- Bas [2]: 0%
- Eos [2]: 0.8%
- Fbg [2]: 230.2 mg/dL
- Hb [2]: 12.6 g/dL
- Ht [2]: 39.6%
- Lym [2]: 82.2%
- MCH [2]: 20.8 pg
- MCHC [2]: 31.8%
- MCV [2]: 65.5 fL
- Mono [2]: 7%
- Neu [2]: 10%
- PT [2]: 11.9 s
- Plat [2]: 101.9 x10_4/uL
- RBC [2]: 605.2 x10_4/ul
- Ret [2]: 6.9%
- WBC [2]: 121.2 x10_2/uL
- APTT [3]: 16.4 s
- Bas [3]: 0%
- Eos [3]: 1%
- Fbg [3]: 250.2 mg/dL
- Hb [3]: 14 g/dL
- Ht [3]: 42.3%
- MCH [3]: 21 pg
- MCHC [3]: 33.1%
- MCV [3]: 63.3 fL
- Mono [3]: 4.4%
- Neu [3]: 11%
- PT [3]: 9.8 s
- Plat [3]: 111.2 x10_4/uL
- RBC [3]: 669.4 x10_4/ul
- Ret [3]: 5.7%
- WBC [3]: 131.2 x10_2/uL
- APTT [4]: 17.2 s
- Bas [4]: 0%
- Eos [4]: 1%
- Fbg [4]: 235.2 mg/dL
- Hb [4]: 14.8 g/dL
- Ht [4]: 44%
- MCH [4]: 19.4 pg
- MCHC [4]: 33.6%
- MCV [4]: 57.8 fL
- Mono [4]: 3.4%
- Neu [4]: 11%
- PT [4]: 11.3 s
- Plat [4]: 107.5 x10_4/uL
- RBC [4]: 762.2 x10_4/ul
- Ret [4]: 2.8%
- WBC [4]: 132.8 x10_2/uL
- KIDNEY_L [2]: 1.1 g
- KIDNEY_R [2]: 1.1 g
- KIDNEY_TOTAL [2]: 2.1 g
- KIDNEY_L [3]: 1.2 g
- KIDNEY_R [3]: 1.2 g
- KIDNEY_TOTAL [3]: 2.4 g
- KIDNEY_L [4]: 1.3 g
- KIDNEY_R [4]: 1.3 g
- KIDNEY_TOTAL [4]: 2.5 g
- LIVER [2]: 11.7 g
- LIVER [3]: 13.3 g
- ALP [2]: 938.8 IU/L
- ALT [2]: 31.6 IU/L
- AST [2]: 61.8 IU/L
- BUN [2]: 19.6 mg/dL
- CRE [2]: 0.5 mg/dL
- Ca [2]: 11.3 mg/dL
- DBIL [2]: 0.01 mg/dL
- GLC [2]: 186.8 mg/dL
- IP [2]: 8.6 mg/dL
- K [2]: 5 meq/L
- LDH [2]: 67 IU/L
- Na [2]: 140.6 meq/L
- PL [2]: 158.4 mg/dL
- RALB [2]: 3.9 g/dL
- TBIL [2]: 0.3 mg/dL
- TC [2]: 90.2 mg/dL
- TG [2]: 93.6 mg/dL
- TP [2]: 5.7 g/dL
- gamma-GTP [2]: 1.2 IU/L
- ALP [3]: 844.4 IU/L
- ALT [3]: 31.4 IU/L
- AST [3]: 58.4 IU/L
- BUN [3]: 18.8 mg/dL
- CRE [3]: 0.6 mg/dL
- DBIL [3]: 0.006 mg/dL
- GLC [3]: 185.6 mg/dL
- IP [3]: 7.9 mg/dL
- K [3]: 4.7 meq/L
- LDH [3]: 80.6 IU/L
- Na [3]: 138.8 meq/L
- PL [3]: 172.8 mg/dL
- RALB [3]: 4.1 g/dL
- TBIL [3]: 0.2 mg/dL
- TC [3]: 82.2 mg/dL
- TG [3]: 150.6 mg/dL
- TP [3]: 6.3 g/dL
- gamma-GTP [3]: 1.2 IU/L
- ALP [4]: 566.6 IU/L
- ALT [4]: 28.8 IU/L
- AST [4]: 57.6 IU/L
- BUN [4]: 18.8 mg/dL
- CRE [4]: 0.4 mg/dL
- Ca [4]: 10.7 mg/dL
- DBIL [4]: 0.048 mg/dL
- GLC [4]: 195.6 mg/dL
- IP [4]: 7 mg/dL
- K [4]: 4.3 meq/L
- LDH [4]: 94.4 IU/L
- Na [4]: 140.2 meq/L
- PL [4]: 150.6 mg/dL
- RALB [4]: 4.1 g/dL
- TBIL [4]: 0.3 mg/dL
- TC [4]: 75.4 mg/dL
- TG [4]: 126.4 mg/dL
- TP [4]: 6.6 g/dL
- gamma-GTP [4]: 1.4 IU/L
- TERMINAL_BW [5]: 197.9 g
- APTT [5]: 16.8 s
- Bas [5]: 0%
- Eos [5]: 1%
- Fbg [5]: 236.3 mg/dL
- Hb [5]: 13.2 g/dL
- Ht [5]: 39.6%
- MCV [5]: 63.9 fL
- Mono [5]: 6.2%
- Neu [5]: 13%
- Plat [5]: 90 x10_4/uL
- RBC [5]: 621.4 x10_4/ul
- Ret [5]: 6.4%
- WBC [5]: 94.6 x10_2/uL
- KIDNEY_L [5]: 0.9 g
- KIDNEY_R [5]: 0.9 g
- KIDNEY_TOTAL [5]: 1.8 g
- LIVER [5]: 8.9 g
- ALP [5]: 806.8 IU/L
- ALT [5]: 44.4 IU/L
- AST [5]: 64 IU/L
- CRE [5]: 0.5 mg/dL
- DBIL [5]: 0.012 mg/dL
- GLC [5]: 182 mg/dL
- IP [5]: 8.4 mg/dL
- K [5]: 5.3 meq/L
- LDH [5]: 83.2 IU/L
- Na [5]: 139 meq/L
- PL [5]: 140.6 mg/dL
- RALB [5]: 3.8 g/dL
- TBIL [5]: 0.3 mg/dL
- TC [5]: 78.6 mg/dL
- TG [5]: 76.6 mg/dL
- TP [5]: 5.6 g/dL
- gamma-GTP [5]: 1.6 IU/L
- TERMINAL_BW [6]: 227.7 g
- TERMINAL_BW [7]: 280.3 g
- TERMINAL_BW [8]: 387.5 g
- Bas [6]: 0%
- Eos [6]: 0.8%
- Fbg [6]: 221.6 mg/dL
- Hb [6]: 12.9 g/dL
- Ht [6]: 38.6%
- Lym [6]: 80%
- MCH [6]: 21.2 pg
- MCV [6]: 63.8 fL
- Mono [6]: 5.8%
- Neu [6]: 13.8%
- Plat [6]: 94 x10_4/uL
- RBC [6]: 605.6 x10_4/ul
- Ret [6]: 6.4%
- WBC [6]: 126.8 x10_2/uL
- APTT [7]: 16.3 s
- Bas [7]: 0%
- Eos [7]: 0.8%
- Fbg [7]: 243.6 mg/dL
- Hb [7]: 14 g/dL
- Ht [7]: 41.8%
- Lym [7]: 85.8%
- MCHC [7]: 33.4%
- MCV [7]: 61.8 fL
- Mono [7]: 5.4%
- Neu [7]: 8.2%
- PT [7]: 10.2 s
- Plat [7]: 102.2 x10_4/uL
- RBC [7]: 678.2 x10_4/ul
- Ret [7]: 6.3%
- WBC [7]: 155.4 x10_2/uL
- APTT [8]: 17.3 s
- Bas [8]: 0%
- Eos [8]: 1%
- Fbg [8]: 233.2 mg/dL
- Hb [8]: 14.7 g/dL
- Ht [8]: 44.2%
- Lym [8]: 85.2%
- MCH [8]: 19.8 pg
- MCHC [8]: 33.4%
- MCV [8]: 59.3 fL
- Mono [8]: 4.4%
- Neu [8]: 9.4%
- PT [8]: 11.4 s
- Plat [8]: 105.1 x10_4/uL
- RBC [8]: 746.2 x10_4/ul
- Ret [8]: 3%
- WBC [8]: 131.4 x10_2/uL
- KIDNEY_L [6]: 1 g
- KIDNEY_R [6]: 1 g
- KIDNEY_TOTAL [6]: 2.1 g
- KIDNEY_L [7]: 1.1 g
- KIDNEY_R [7]: 1.1 g
- KIDNEY_TOTAL [7]: 2.3 g
- KIDNEY_L [8]: 1.4 g
- KIDNEY_R [8]: 1.4 g
- KIDNEY_TOTAL [8]: 2.8 g
- LIVER [6]: 10.7 g
- LIVER [8]: 15.3 g
- ALP [6]: 932.4 IU/L
- ALT [6]: 37.2 IU/L
- AST [6]: 65.8 IU/L
- BUN [6]: 18.2 mg/dL
- CRE [6]: 0.5 mg/dL
- Ca [6]: 11.4 mg/dL
- DBIL [6]: 0 mg/dL
- GLC [6]: 184 mg/dL
- IP [6]: 8.4 mg/dL
- K [6]: 4.9 meq/L
- LDH [6]: 56 IU/L
- Na [6]: 139.8 meq/L
- PL [6]: 149.8 mg/dL
- RALB [6]: 3.9 g/dL
- TBIL [6]: 0.3 mg/dL
- TG [6]: 74.8 mg/dL
- TP [6]: 5.8 g/dL
- gamma-GTP [6]: 1.6 IU/L
- ALP [7]: 887.8 IU/L
- ALT [7]: 33 IU/L
- AST [7]: 66.4 IU/L
- BUN [7]: 21.2 mg/dL
- CRE [7]: 0.5 mg/dL
- Ca [7]: 10.9 mg/dL
- DBIL [7]: 0.022 mg/dL
- GLC [7]: 195.6 mg/dL
- IP [7]: 8.4 mg/dL
- K [7]: 4.9 meq/L
- LDH [7]: 88 IU/L
- Na [7]: 139.2 meq/L
- PL [7]: 175 mg/dL
- RALB [7]: 4 g/dL
- TBIL [7]: 0.3 mg/dL
- TC [7]: 89 mg/dL
- TG [7]: 128 mg/dL
- TP [7]: 6.1 g/dL
- gamma-GTP [7]: 2.2 IU/L
- ALP [8]: 630 IU/L
- ALT [8]: 29 IU/L
- AST [8]: 54.2 IU/L
- BUN [8]: 17.8 mg/dL
- CRE [8]: 0.4 mg/dL
- Ca [8]: 11 mg/dL
- DBIL [8]: 0.024 mg/dL
- GLC [8]: 185.4 mg/dL
- IP [8]: 7.5 mg/dL
- K [8]: 4.6 meq/L
- LDH [8]: 75.6 IU/L
- Na [8]: 140 meq/L
- PL [8]: 141.6 mg/dL
- RALB [8]: 4 g/dL
- TBIL [8]: 0.3 mg/dL
- TC [8]: 72.8 mg/dL
- TG [8]: 108.8 mg/dL
- TP [8]: 6.4 g/dL
- gamma-GTP [8]: 1.4 IU/L
- TERMINAL_BW (300 mg/kg, 72 h, dose level Middle, time 3 day): 198.3 g
